Data as given in US20230146455A1, “TREATMENT OF INFLAMMATORY DISEASES WITH PEPTIDES AND PHARMACEUTICAL COMPOSITIONS” (Yuyu Pharma, Inc., priority 2020, published 2023).
“And” between values parts separate entries of the source, which are not always exact repeats. Equal entries are not always repeated. Where a SMILES comes first, the peptide text is derived from it. [ ]: non-standard residue; d: D form. Hyp = O=C(O)[C@@H]1C[C@@H](O)CN1

Columns and labels:
[1] = tested on: CCL4/MIP-1 beta; experiment: Example 9 Luminex, LPS hPBMCs: CCL4/MIP-1 beta; assay type: cell-based, human; conditions: PBMC without LPS; for MFI (Bead name: CCL4/MIP-1 beta): dilution 10
Procedure: (§1) Treatment Human PBMCs were pretreated with YY-101, YDE-011 and YDE-043 or reference compound; Xiidra® at various concentration (ranging from 1 nM to 100 uM) for 2 h before stimulation. An equal volume of 0.5% DMSO was used as a vehicle control. Then, the cells were treated with LPS at 5 ug/ml. The supernatants from treated cells were harvested at 24 h and placed in a 96 well for Luminex cytokine & chemokine profiling using a Luminex 200 multiplex assay (Luminex; R&D system, USA).
(§2) The main study arm with triplicate wells per group in a 24-well plate: • 1. Blank • 2. PBMC: 0.5% DMSO • 3. PBMC+LPS (5 ug/ml) • 4. PBMC+YY-101 100 uM • 5. PBMC+YY-101 10 uM • 6. PBMC+YY-101 1 uM • 7. PBMC+YY-101 0.1 uM • 8. PBMC+YY-101 0.01 uM • 9. PBMC+LPS (5 ug/ml)+Xiidra®100 uM • 10. PBMC+LPS (5 ug/ml)+Xiidra® 10 uM • 11. PBMC+LPS (5 ug/ml)+Xiidra® 1 uM • 12. PBMC+LPS (5 ug/ml)+Xiidra®0.1 uM • 13. PBMC+LPS (5 ug/ml)+Xiidra®0.01 uM • 14. PBMC+LPS (5 ug/ml)+Xiidra®0.001 uM • 15. PBMC+LPS (5 ug/ml)+YY-101 100 uM • 16. PBMC+LPS (5 ug/ml)+YY-101 10 uM • 17. PBMC+LPS (5 ug/ml)+YY-101 1 uM • 18. PBMC+LPS (5 ug/ml)+YY-101 0.1 uM • 19. PBMC+LPS (5 ug/ml)+YY-101 0.01 uM • 20. PBMC+LPS (5 ug/ml)+YY-101 0.001 uM • 21. PBMC+LPS (5 ug/ml)+YDE-011 100 uM • 22. PBMC+LPS (5 ug/ml)+YDE-011 10 uM • 23. PBMC+LPS (5 ug/ml)+YDE-011 1 uM • 24. PBMC+LPS (5 ug/ml)+YDE-011 0.1 uM • 25. PBMC+LPS (5 ug/ml)+YDE-011 0.01 uM • 26. PBMC+LPS (5 ug/ml)+YDE-011 0.001 uM • 27. PBMC+LPS (5 ug/ml)+YDE-043 100 uM • 28. PBMC+LPS (5 ug/ml)+YDE-043 10 uM • 29. PBMC+LPS (5 ug/ml)+YDE-043 1 uM • 30. PBMC+LPS (5 ug/ml)+YDE-043 0.1 uM • 31. PBMC+LPS (5 ug/ml)+YDE-043 0.01 uM • 32. PBMC+LPS (5 ug/ml)+YDE-043 0.001 uM
(§3) Multiplex assay was used to measure 30 cytokines and chemokines. The 1:2, 1:10 and 1:200 diluted cell supernatant and serial dilution of the standard were dispensed into a 96 well plate at 50 ul/well. Then, the pre-mixed cocktail of antibody-coated magnetic beads was dispensed at 50 ul/well and incubated at room temperature for 2 h in a horizontal orbital microplate shaker at 800±500 rpm. The beads were washed using a magnetic device to prevent loss. The biotin-antibody was dispensed in 50 ul of each well and incubated at room temperature for 1 h in a shaker at 800±500 rpm. After washing, streptavidin-PE was added at 50 ul/well and incubated at room temperature for 30 min in a shaker under the same conditions. Finally, after washing, wash buffer (100 ul/well) was added to the plate and incubated in a shaker for 2 min. The Luminex™ 200 setting were set according to the manufacturer's protocol. The data was calculated with a standard five-parameter logistic nonlinear regression analysis of the data (xPonent software 4.2, USA). The levels of cytokine/chemokine are normalized to the live cell counts (1×10^5 cells/mL) and presented as concentrations per mL (pg/mL or ng/mL).

[2] = tested on: IL-1 alpha; experiment: Example 9 Luminex, LPS hPBMCs: IL-1 alpha; assay type: cell-based, human; conditions: for Concentration / conc/live cell: IL-1 alpha, replicates and Mean
Procedure: as §1, §2, §3

[3] = test article 10 uM, single replicates
[4] = test article 100 uM, single replicates
[5] = PBMC + LPS(5 ug/ml) + YY101 0.001 uM
[6] = PBMC + LPS(5 ug/ml) + YY101 0.001 uM, mean
[7] = PBMC + LPS(5 ug/ml) + YY101 0.01 uM
[8] = PBMC + LPS(5 ug/ml) + YY101 0.01 uM, mean
[9] = PBMC + LPS(5 ug/ml) + YY101 0.1 uM
[10] = PBMC + LPS(5 ug/ml) + YY101 0.1 uM, mean
[11] = PBMC + LPS(5 ug/ml) + YY101 1 uM
[12] = PBMC + LPS(5 ug/ml) + YY101 1 uM, mean
[13] = PBMC + LPS(5 ug/ml) + YY101 10 uM
[14] = PBMC + LPS(5 ug/ml) + YY101 10 uM, mean
[15] = PBMC + LPS(5 ug/ml) + YY101 100 uM
[16] = PBMC + LPS(5 ug/ml) + YY101 100 uM, mean
[17] = PBMC + YY101 0.01 uM (second group so labelled), no LPS
[18] = PBMC + YY101 0.01 uM (second group so labelled), no LPS, mean
[19] = PBMC + YY101 0.01 uM, no LPS, mean
[20] = PBMC + YY101 1 uM, no LPS, mean
[21] = PBMC + YY101 10 uM, no LPS, mean
[22] = PBMC + YY101 100 uM, no LPS, mean

CC(C)C[C@H](NC(=O)CNC(=O)[C@H](CC(=O)O)NC(=O)[C@H](CCC(N)=O)NC(=O)CNC(=O)[C@@H]1C[C@@H](O)CN1)C(=O)N[C@@H](C)C(=O)NCC(=O)N1CCC[C@H]1C(=O)N[C@@H](CCCCN)C(=O)O [YY-101] (H-[Hyp]GQDGLAGPK-OH; N-terminus and C-terminus assumed)
Concentration (CCL4/MIP-1 beta) [1, 3]: 1948.5 pg/mL | conc/live cell (CCL4/MIP-1 beta) [1, 3]: 304.4 pg/10^5 and 0.0 pg/10^5 | Concentration (CCL4/MIP-1 beta) ([1]; test article 100 uM, Mean): 1360.7 pg/mL | conc/live cell (CCL4/MIP-1 beta) ([1]; test article 100 uM, Mean): 207.4 pg/10^5 | MFI (Bead name: CCL4/MIP-1 beta) ([1]; test article 100 uM, Mean): 6.5 | MFI (Bead name: CCL4/MIP-1 beta) [1, 4]: 10.0 and 3.0 | Concentration (CCL4/MIP-1 beta) [1, 4]: 1948.5 pg/mL and 772.9 pg/mL | conc/live cell (CCL4/MIP-1 beta) [1, 4]: 304.4 pg/10^5 and 110.4 pg/10^5 | Concentration [2, 5]: 426.2 pg/mL and 461.9 pg/mL and 419.9 pg/mL | conc/live cell [2, 5]: 74.8 pg/10^5 and 65.1 pg/10^5 and 63.6 pg/10^5 | Concentration [2, 6]: 436.0 pg/mL | conc/live cell [2, 6]: 67.8 pg/10^5 | Concentration [2, 7]: 506.1 pg/mL and 475.9 pg/mL and 484.7 pg/mL | conc/live cell [2, 7]: 79.1 pg/10^5 and 79.3 pg/10^5 and 79.5 pg/10^5 | Concentration [2, 8]: 488.9 pg/mL | conc/live cell [2, 8]: 79.3 pg/10^5 | Concentration [2, 9]: 491.3 pg/mL and 481.8 pg/mL and 482.5 pg/mL | conc/live cell [2, 9]: 79.2 pg/10^5 and 92.6 pg/10^5 and 77.8 pg/10^5 | Concentration [2, 10]: 485.2 pg/mL | conc/live cell [2, 10]: 83.2 pg/10^5 | Concentration [2, 11]: 451.2 pg/mL and 427.3 pg/mL and 434.3 pg/mL | conc/live cell [2, 11]: 71.6 pg/10^5 and 60.2 pg/10^5 and 70.0 pg/10^5 | Concentration [2, 12]: 437.6 pg/mL | conc/live cell [2, 12]: 67.3 pg/10^5 | Concentration [2, 13]: 473.3 pg/mL and 470.7 pg/mL and 483.6 pg/mL | conc/live cell [2, 13]: 78.9 pg/10^5 and 73.6 pg/10^5 and 63.6 pg/10^5 | Concentration [2, 14]: 475.9 pg/mL | conc/live cell [2, 14]: 72.0 pg/10^5 | Concentration [2, 15]: 656.9 pg/mL and 616.5 pg/mL and 614.2 pg/mL | conc/live cell [2, 15]: 104.3 pg/10^5 and 99.4 pg/10^5 and 122.8 pg/10^5 | Concentration [2, 16]: 629.2 pg/mL | conc/live cell [2, 16]: 108.8 pg/10^5 | Concentration [2, 17]: 1.0 pg/mL and 5.3 pg/mL | conc/live cell [2, 17]: 0.2 pg/10^5 and 0.9 pg/10^5 | Concentration [2, 18]: 3.1 pg/mL | conc/live cell [2, 18]: 0.6 pg/10^5 | Concentration ([2]; PBMC + YY101 0.01 uM, no LPS): 1.0 pg/mL and 5.3 pg/mL | conc/live cell ([2]; PBMC + YY101 0.01 uM, no LPS): 0.2 pg/10^5 and 1.1 pg/10^5 | Concentration [2, 19]: 3.1 pg/mL | conc/live cell [2, 19]: 0.6 pg/10^5 | Concentration ([2]; PBMC + YY101 1 uM, no LPS): 5.3 pg/mL | conc/live cell ([2]; PBMC + YY101 1 uM, no LPS): 1.0 pg/10^5 | Concentration [2, 20]: 5.3 pg/mL | conc/live cell [2, 20]: 1.0 pg/10^5 | Concentration ([2]; PBMC + YY101 10 uM, no LPS): 31.7 pg/mL and 7.1 pg/mL | conc/live cell ([2]; PBMC + YY101 10 uM, no LPS): 5.0 pg/10^5 and 1.2 pg/10^5 | Concentration [2, 21]: 19.4 pg/mL | conc/live cell [2, 21]: 3.1 pg/10^5 | Concentration ([2]; PBMC + YY101 100 uM, no LPS): 10.4 pg/mL and 5.3 pg/mL | conc/live cell ([2]; PBMC + YY101 100 uM, no LPS): 1.6 pg/10^5 and 0.8 pg/10^5 | Concentration [2, 22]: 7.9 pg/mL | conc/live cell [2, 22]: 1.2 pg/10^5 | LPS-induced IL-1a levels (in words) ([2]; at 100.iM, LPS 5 ug/mL 24 hrs): further increased
